Reference: article PMC12291464, “Modifying Antifungal Peptides as Safe Food Preservatives” (Journal of Agricultural and Food Chemistry, 2025)
Values after ≈ are worked out from the molar mass of the structure shown. “Also recorded” adds a separate entry of the source. Where two headings read alike, the source gives them in different places. Residues, ends and D or L forms follow the SMILES beside them.

How the values were obtained:
[1] = target: chymotrypsin (Bos taurus, UniProt P00766); assay: Digestion examination of the peptides by chymotrypsin
Method: Peptides were dissolved in 1 mL of 100 μM NH4HCO3 to a final concentration of 4 mM, followed by the addition of 1 μL chymotrypsin (1 mg/mL), and were incubated at 37 °C and 150 rpm. At each time point, 75 μL of the solution was transferred to 90 °C for inactivation of the enzyme. After the peptides were frozen in liquid nitrogen and lyophilized, they were dissolved in DMSO and were analyzed in HPLC using Analytic Phenomenex Luna C18 (5 μm, 4.6 × 250 mm) with standard RP-HPLC conditions. The area under curve (AUC) was calculated at each time point and normalized to time = 0.
4 Peptide’s secondary structure and digestibility. (A) CD spectra of the peptides (50 μM) in DDW was measured using a J-1100 spectropolarimeter (Jasco), with the following parameters: wavelength range of 190–260 nm, bandwidth of 1 nm, data pitch of 0.1 nm, and three accumulations. A baseline spectrum was recorded using a 0.1 cm quartz cuvette filled with DDW and subtracted from the peptide spectrum to obtain the corrected CD spectrum. […] The area under the curve (AUC) was calculated at each time point and normalized to t = 0. The y axis ranges from 100%, meaning not digested at all, to 0%, meaning fully digested.

[2] = system: A. Niger; settings: 24 h
Method: (§1) A1163 was grown on potato dextrose agar (PDA) medium at 37 °C for 5 days, and then the conidia were scraped and suspended in PBS with 0.025% (v/v) Tween 20, counted using a hemocytometer, and kept at 4 °C. isolated from peanuts and Pe21 (both kindly provided by Dr. Edward Sionov, ARO, Israel) were grown on PDA medium at 25 °C for 5 days, and then the conidia were scraped and suspended in PBS with 0.025% Tween 20 and kept at 4 °C. RP and methicillin-resistant (MRSA) were grown on LB agar plates, and individual colonies were picked and grown in Mueller–Hinton (MH) broth overnight at 37 °C. was grown on PDA medium at 30 °C, and individual colonies were picked and grown in yeast extract peptone dextrose (YPD) media overnight at 30 °C. All fungal and bacteria strains were maintained at −80 °C in 50% (v/v) glycerol stock.
(§2) For filamentous fungi strains, serial dilutions of 100 μL ranged from 100 to 0.78 μM for each peptide in a 96 well plate using RPMI1640 with 165 μM MOPS. A total of 80 μL of inoculum was suspended with a conidia load of 5 × 10^3 CFU/mL (final density of 2 × 10^3 CFU/mL), and 20 μL of resazurin was diluted in RPMI1640 solution of 0.02% [final concentration of 0.0002% (w/v)]. In the control, 100 μL of treatment was replaced by the same volume with medium, while the negative control was 180 μL of the medium and 20 μL of resazurin solution. Plates were incubated at 37 °C for and 25 °C for and for 24 h. The results were quantified by measuring absorbance at 570 nm with a microplate reader (Tecan). The mean absorbance values were used in subsequent calculations. The growth of resazurin reduction and growth inhibition was calculated using the following normalization: % growth=100−% reduction=abs of test agent−abs of untreated control/abs of reduced resazurin−abs of untreated control The MIC was defined as the lowest concentration of the peptide that inhibited fungal growth by 90%, allowing for only 10% of the normal growth. For bacterial and yeast strains studies, serial dilutions of 100 μL ranged from 100 to 0.78 μM for each peptide in a 96 well plate using MH media for bacteria and YPD for yeast. A total of 100 μL of the microbe in suitable media (5 × 10^5 CFU/mL) was inoculated in each well. In the untreated well (e.g., control), 100 μL of treatment was replaced by the same volume with medium, while in the negative control, media were only without microbes and peptides. After 24 h of incubation at 37 °C for bacteria and 30 °C for yeast, plates were read at 595 nm and MIC was defined as the lowest concentration of peptide that reduced the growth of the microbe to 10% growth.

[3] = system: MRSA
Method: as §1, §2

[4] = system: E. coli
Method: as §1, §2

[5] = system: P. expansum; settings: 24 h
Method: as §1, §2

[6] = system: A. fumigatus; settings: 24 h
Method: as §1, §2

[7] = system: HEK cells; assay: Toxicity assay on the human cell line (MTT); assay type: cell-based; settings: 100 to 0.78 μM peptide, 24 h, read at 595 nm, normalized to untreated cells; 3 biological repeats in triplicates
Method: HEK cells were grown at 37 °C with 5% CO2 in Deulbecco’s modifield Eagle’s medium (DMEM, Sigma) with 2 mM L-glutamine, 1% (v/v) penicillin and streptomycin (Penstrep), and 20% (v/v) fetal bovine serum. The day before the experiment, cells were detached by gentle scraping, counted with a hemocytometer to a concentration of 10^6 cells/mL, and seeded into a 96-well microplate (Nunc, Thermo Scientific). The following day, serial dilutions from 100 to 0.78 μM for each peptide were introduced to the cells with DMEM lacking phenol red for 24 h. Later, 50 μL of 3-(4,5-dimethylthiazol-2-yl)-2,5-diphenyltetrazolium bromide (MTT, 0.5 mg/mL) was added to the wells for 2 h of incubation. At the end, 100 μL of DMSO was added for 30 min at 37 °C and 200 rpm, and the plate was read at 595 nm and normalized to the untreated cells.
Peptide Concentration [µM] Peptide Concentration [µM]
Supplementary 3. Cytotoxicity examination. HEK cells were cultured in DMEM with L-glutamine, PenStrep, and fetal bovine serum at 37°C and 5% CO2. The day before the experiment, cells were detached, counted (10^6 cells/ml), and seeded into a 96-well plate. […] Cell viability was assessed using the MTT assay; after adding 50µl of MTT and incubating for 2 hours, 100µl DMSO was added for 30minutes at 37 °C, 200rpm. Next, absorbance was measured at 595nm and normalized to untreated controls. […]

[8] = RPMI1640 with MOPS, resazurin, absorbance 570 nm, MIC = lowest concentration inhibiting growth by 90%, average ± SE, 3 biological repeats in triplicates
[9] = MH media, 5 × 10^5 CFU/mL, 24 h at 37 °C, read at 595 nm, MIC = growth reduced to 10%, average ± SE, 3 biological repeats in triplicates

Structure (SMILES) | digestion by chymotrypsin [1] | MIC Values, A. Niger [2, 8] | MIC Values, MRSA [3, 9] | MIC Values, E. coli [4, 9] | MIC Values, P. expansum [5, 8] | MIC Values, A. fumigatus [6, 8] | cytotoxicity against HEK mammalian cells (MTT assay) [7] | digestion by chymotrypsin ([1]; peptide 4 mM in 100 μM NH4HCO3, 1 μL chymotrypsin (1 mg/mL), 37 °C, 150 rpm, analytical RP-HPLC C18, AUC normalized to t = 0) | MIC Values, A. Niger [2] | MIC Values, MRSA ([3]; 24 h) | MIC Values, E. coli ([4]; 24 h) | MIC Values, P. expansum [5] | MIC Values, A. fumigatus [6]
CC[C@H](C)[C@H](NC(=O)[C@H](CCCCN)NC(=O)[C@H](CCCCN)NC(=O)[C@H](Cc1ccccc1)NC(=O)[C@H](CC(C)C)NC(=O)[C@H](CCCCN)NC(=O)[C@H](CCCCN)NC(=O)[C@H](CC(C)C)NC(=O)[C@H](Cc1ccc(O)cc1)NC(=O)[C@H](CCCCN)NC(=O)[C@H](CC(C)C)NC(=O)[C@@H](NC(=O)[C@H](CCCCN)NC(=O)[C@H](CCCCN)NC(=O)[C@H](Cc1ccccc1)NC(=O)[C@H](CC(C)C)NC(=O)[C@H](CCCCN)NC(=O)[C@@H](N)CCCCN)[C@@H](C)CC)C(=O)N[C@@H](CC(C)C)C(=O)N[C@@H](CCCCN)C(=O)N[C@@H](Cc1ccc(O)cc1)C(=O)N[C@@H](CC(C)C)C(N)=O [BP100 Double] (H-KKLFKKILKYLKKLFKKILKYL-NH2) | less prone for digestions; also recorded: not digested | 5 ± 1 µM (≈ 14.1 µg/mL) | >200 µM | >200 µM | 2 ± 0 µM (≈ 5.65 µg/mL) | 3 ± 0.5 µM (≈ 8.47 µg/mL) |  |  |  |  |  |  | 
CC[C@H](C)[C@H](NC(=O)[C@H](CCCCN)NC(=O)[C@H](CCCCN)NC(=O)[C@H](Cc1ccccc1)NC(=O)[C@H](CC(C)C)NC(=O)[C@H](CCCCN)NC(=O)[C@@H](N)Cc1c[nH]c2ccccc12)C(=O)N[C@@H](CC(C)C)C(=O)N[C@@H](CCCCN)C(=O)N[C@@H](Cc1ccc(O)cc1)C(=O)N[C@@H](CC(C)C)C(N)=O [BP100 K1W] | fully degraded within a short time frame | 10 ± 2 µM (≈ 14.8 µg/mL) | 3 ± 0 µM (≈ 4.44 µg/mL) | 2 ± 0 µM (≈ 2.96 µg/mL) | 6 ± 0 µM (≈ 8.87 µg/mL) | 8 ± 2 µM (≈ 11.8 µg/mL) | low to no cytotoxicity |  |  |  |  |  | 
CC[C@H](C)[C@H](NC(=O)[C@H](CCCCN)NC(=O)[C@H](CCCCN)NC(=O)[C@H](Cc1ccccc1)NC(=O)[C@H](CC(C)C)NC(=O)[C@H](CCCCN)NC(=O)[C@H](CCCCN)NC(=O)[C@H](CC(C)C)NC(=O)[C@H](Cc1ccc(O)cc1)NC(=O)[C@H](CCCCN)NC(=O)[C@H](CC(C)C)NC(=O)[C@@H](NC(=O)[C@H](CCCCN)NC(=O)[C@H](CCCCN)NC(=O)[C@H](Cc1ccccc1)NC(=O)[C@H](CC(C)C)NC(=O)[C@H](CCCCN)NC(=O)[C@H](CCCCN)NC(=O)[C@H](CC(C)C)NC(=O)[C@H](Cc1ccc(O)cc1)NC(=O)[C@H](CCCCN)NC(=O)[C@H](CC(C)C)NC(=O)[C@@H](NC(=O)[C@H](CCCCN)NC(=O)[C@H](CCCCN)NC(=O)[C@H](Cc1ccccc1)NC(=O)[C@H](CC(C)C)NC(=O)[C@H](CCCCN)NC(=O)[C@@H](N)CCCCN)[C@@H](C)CC)[C@@H](C)CC)C(=O)N[C@@H](CC(C)C)C(=O)N[C@@H](CCCCN)C(=O)N[C@@H](Cc1ccc(O)cc1)C(=O)N[C@@H](CC(C)C)C(N)=O [BP100 Triple] (H-KKLFKKILKYLKKLFKKILKYLKKLFKKILKYL-NH2) | less prone for digestions; also recorded: not digested | >200 µM | >200 µM | >200 µM | 83 ± 17 µM (≈ 351 µg/mL) | 42 ± 8.3 µM (≈ 178 µg/mL) |  |  |  |  |  |  | 
C[C@H](N)C(=O)N[C@@H](CCCCN)C(=O)N[C@@H](CCCNC(=N)N)C(=O)N[C@@H](Cc1c[nH]cn1)C(=O)N[C@@H](Cc1c[nH]cn1)C(=O)NCC(=O)N[C@@H](Cc1ccc(O)cc1)C(=O)N[C@@H](CCCCN)C(=O)N[C@@H](CCCNC(=N)N)C(=O)N[C@@H](CCCCN)C(=O)N[C@@H](Cc1ccccc1)C(=O)N[C@@H](Cc1c[nH]cn1)C(=O)N[C@@H](C)C(=O)N[C@@H](CCCCN)C(=O)N[C@@H](CCCNC(=N)N)C(=O)N[C@@H](Cc1c[nH]cn1)C(=O)N[C@@H](Cc1c[nH]cn1)C(=O)NCC(=O)N[C@@H](Cc1ccc(O)cc1)C(=O)N[C@@H](CCCCN)C(=O)N[C@@H](CCCNC(=N)N)C(=O)N[C@@H](CCCCN)C(=O)N[C@@H](Cc1ccccc1)C(=O)N[C@@H](Cc1c[nH]cn1)C(=O)N[C@@H](C)C(=O)N[C@@H](CCCCN)C(=O)N[C@@H](CCCNC(=N)N)C(=O)N[C@@H](Cc1c[nH]cn1)C(=O)N[C@@H](Cc1c[nH]cn1)C(=O)NCC(=O)N[C@@H](Cc1ccc(O)cc1)C(=O)N[C@@H](CCCCN)C(=O)N[C@@H](CCCNC(=N)N)C(=O)N[C@@H](CCCCN)C(=O)N[C@@H](Cc1ccccc1)C(=O)N[C@@H](Cc1c[nH]cn1)C(N)=O [P-113 Triple] (H-AKRHHGYKRKFHAKRHHGYKRKFHAKRHHGYKRKFH-NH2) |  |  |  |  |  |  | low to no cytotoxicity | fully degraded within a short time frame | 16 ± 4 µM (≈ 74.5 µg/mL) | 25 ± 0 µM (≈ 116 µg/mL) | 42 ± 14 µM (≈ 196 µg/mL) | 5 ± 2 µM (≈ 23.3 µg/mL) | 5 ± 2 µM (≈ 23.3 µg/mL)
